Experimental findings from US5260309A, “4,5,6,11-tetrahydrobenzo [6,7] cycloocta [1,2-b]thiophen-6,11-imines and 6,11-dihydrobenzo [6,7] cycloocta [1,2-b] thiophen-6,11-imines” (Pfizer Inc., priority 1992, dated 1993) are described below.

For the test, the target named is P2 membranes from rat forebrain (3H-TCP binding). The test is described as follows: 3H-TCP binding assay (displacement of 3H-TCP from P2 membranes from rat forebrain). As to conditions: for IC50: rat forebrain P2 membranes, pH 7.4, 20 minutes at 30° C. The protocol: P2 membranes from rat forebrain were suspended in 5 mM tris(hydroxymethyl)aminomethane hydrochloride buffer (pH 7.4). A solution of the test compound in H2 O or DMSO/H2 O was added followed by a solution of ^3 H-TCP The mixture was incubated for 20 minutes at 30° C. and then injected onto a glass fiber filter. The filters were washed with cold buffer and placed in vials for subsequent liquid scintillation spectrometry. IC50 were calculated from the amount of tritium label retained on the filters.

The mark [1] stands for this setting: upper bound stated for the group in micromolar.
[2] abbreviates: upper bound stated for the group in nanomolar.

As usually defined, the IC50 is the concentration at which inhibition is half-maximal. Read a high IC50 as weaker potency.

Under setting [1], `CC12NC(C=Cc3ccsc31)c1ccccc12` (stereo not drawn) [Example 18, 11-Methyl-6,11-dihydrobenzo[6,7]cycloocta[1,2-b]thiophen-6,11-imine] had an IC50 of at most 2 µM.

On to `CC12NC(CCc3ccsc31)c1ccccc12` (stereo not drawn) [Example 9, 11-Methyl-4,5,6,11-tetrahydrobenzo[6,7]cycloocta-[1,2-b]thiophen-6,11-imine], for which, under setting [2], the IC50 was at most 0.04 µM.

`CSc1cc2c(s1)C1(C)NC(CC2)c2ccccc21` (stereo not drawn) [Example 14, 2-Methylthio-11-methyl-4,5,6,11-tetrahydrobenzo[6,7]-cycloocta[1,2-b]thiophen-6,11-imine] returned an IC50 under setting [1] of at most 2 µM.

Under setting [1], `c1ccc2c(c1)C1CCc3ccsc3C2N1` (stereo not drawn) [Example 4, 4,5,6,11-Tetrahydrobenzo[6,7]cycloocta[1,2-b]thiophen-6,11-imine] gave an IC50 of at most 2 µM.

The molecule `CC12NC(CCc3cc(Cl)sc31)c1ccccc12` (stereo not drawn) [Example 16, 2-Chloro-11-methyl-4,5,6,11-tetrahydrobenzo[6,7]-cycloocta[1,2-b]thiophen-6,11-imine] gave a half-maximal inhibitory concentration (IC50) under setting [1] of at most 2 µM.

Take `CC12NC(CCc3ccsc31)c1ccccc12` (single isomer, unassigned; (+)) [(+)-enantiomer, (+)-11-methyl-4,5,6,11-tetrahydrobenzo[6,7]cycloocta[1,2-b]-thiophen-6,11-imine]: the “times as active as the (-)-enantiomer in the 3H-TCP binding assay” value (activity ratio (+)-enantiomer vs (-)-enantiomer) was “approximately eight”.

Regarding `CC12NC(CCc3cc(Br)sc31)c1ccccc12` (stereo not drawn) [15 (free amine), 2-bromo-11-methyl-4,5,6,11-tetrahydrobenzo[6,7]cycloocta[1,2-b]thiophen-6,11-imine], the IC50 under setting [1] was at most 2 µM.

As for `CC12NC(CCc3ccsc31)c1cc(F)ccc12` (stereo not drawn) [Example 22, 8-Fluoro-11-methyl-4,5,6,11-tetrahydrobenzo[6,7]-cycloocta[1,2-b]thiophen-6,11-imine], the IC50 under setting [2] was at most 0.04 µM.

Under setting [2], `Cc1ccc2c(c1)C1CCc3ccsc3C2(C)N1` (stereo not drawn) [Example 26, 8.11-Dimethyl-4,5,6,11-tetrahydrobenzo[6,7]cycloocta-[1,2-b]thiophen-6,11-imine] returned a half-inhibitory concentration (IC50) of at most 0.04 µM.
